pIC50: −log10 of the molar value. Counter-ions that a name gives are not always drawn. Like-named read-outs stand apart in the source and are kept apart here.
Target: T1, human LPA1 (Homo sapiens, UniProt Q92633)
T1 construct: expressed in transfected cells; host or cells: Chinese hamster ovary (CHO) cells
Assay: LPA1 functional antagonist assay (LPA-induced calcium flux in CHO cells overexpressing human LPA1)
Assay type: cell-based
Details: read-out: hLPA1 IC50
Experimental: The effectiveness of compounds of the present invention as LPA1 inhibitors can be determined in an LPA1 functional antagonist assay as follows:
Chinese hamster ovary cells overexpressing human LPA1 were plated overnight (15,000 cells/well) in poly-D-lysine coated 384-well microplates (Greiner bio-one, Cat #781946) in DMEM/F12 medium (Gibco, Cat #11039). Following overnight culture, cells were loaded with calcium indicator dye (AAT Bioquest Inc, Cat #34601) for 30 minutes at 37° C. The cells were then equilibrated to room temperature for 30 minutes before the assay. Test compounds solubilized in DMSO were transferred to 384 well non-binding surface plates (Corning, Cat #3575) using the Labcyte Echo acoustic dispense and diluted with assay buffer [IX HBSS with calcium/magnesium (Gibco Cat #14025-092), 20 mM HEPES (Gibco Cat #15630-080) and 0.1% fatty acid free BSA (Sigma Cat #A9205)] to a final concentration of 0.5% DMSO. Diluted compounds were added to the cells by FDSS6000 (Hamamatsu) at final concentrations ranging from 0.08 nM to 5 μM. and were then incubated for 20 min at room temperature at which time LPA (Avanti Polar Lipids Cat #857130C) was added at final concentrations of 10 nM to stimulate the cells. The compound IC50 value was defined as the concentration of test compound which inhibited 50% of the calcium flux induced by LPA alone. IC50 values were determined by fitting data to a 4-parameter logistic equation (GraphPad Prism, San Diego Calif.).

[1] = inhibition of calcium flux induced by 10 nM LPA, CHO cells overexpressing human LPA1

T1 sequence (Q92633 whole entry): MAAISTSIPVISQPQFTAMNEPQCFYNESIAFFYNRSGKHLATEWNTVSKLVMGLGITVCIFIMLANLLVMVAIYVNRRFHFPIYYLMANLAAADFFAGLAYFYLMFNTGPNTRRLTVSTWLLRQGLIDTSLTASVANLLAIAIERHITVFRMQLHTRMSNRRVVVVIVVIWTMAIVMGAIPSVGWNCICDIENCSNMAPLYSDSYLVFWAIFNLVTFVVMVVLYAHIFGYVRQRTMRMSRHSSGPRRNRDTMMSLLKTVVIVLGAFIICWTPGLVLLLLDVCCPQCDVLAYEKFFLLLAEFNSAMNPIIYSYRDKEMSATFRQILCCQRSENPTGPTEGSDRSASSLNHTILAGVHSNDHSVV

SMILES	pIC50 [1]	pIC50
Cc1nc(-c2nnn(C)c2Cn2nnc(NCC3CC3)n2)ccc1O[C@H]1CCC[C@H](C(=O)O)C1 [Example 359, (1S,3S)-3-((6-(5-((5-((cyclopropylmethyl)amino)-2H-tetrazol-2-yl)methyl)-1-methyl-1H-1,2,3-triazol-4-yl)-2-methylpyridin-3-yl)oxy)cyclohexane-1-carboxylic acid]		6.37
Cc1nc(-c2nnn(C)c2Cn2nnnc2CC2CC2)ccc1O[C@H]1CCC[C@H](C(=O)O)C1 [Example 106, (1S,3S)-3-((6-(5-((5-(cyclopropylmethyl)-1H-tetrazol-1-yl)methyl)-1-methyl-1H-1,2,3-triazol-4-yl)-2-methylpyridin-3-yl)oxy)cyclohexane-1-carboxylic acid]	6.83	
Cc1nc(-c2nnn(C)c2Nc2noc(CC3CC3)n2)ccc1O[C@H]1CCC[C@H](C(=O)O)C1 [Example 277, (1S,3S)-3-{[6-(5-{[5-(Cyclo-propylmethyl)-1,2,4-oxadiazol-3-yl]amino}-1-methyl-1H-1,2,3-triazol-4-yl)-2-methylpyridin-3-yl]oxy}cyclohexane-1-carboxylic acid, bis TFA salt]	7.48	
Cc1nc(-c2nnn(C)c2Cc2nnc(Cc3ccc(F)cc3)o2)ccc1O[C@H]1CCC[C@H](C(=O)O)C1 [Example 77]	6.59	
Cc1nc(-c2nnn(C)c2Nc2nc(-c3ccccc3)no2)ccc1O[C@H]1CCC[C@H](C(=O)O)C1 [Example 411, (1 S,3S)-3-((2-methyl-6-(1-methyl-5-((3-phenyl-1,2,4-oxadiazol-5-yl)amino)-1H-1,2,3-triazol-4-yl)pyridin-3-yl)oxy)cyclohexane-1-carboxylic acid]	5.84	
Cc1nc(-c2nnn(C)c2Cn2nnc(N(CC3CC3)CC3CC3)n2)ccc1O[C@H]1CCC[C@H](C(=O)O)C1 [Example 358, (1S,3S)-3-((6-(5-((5-(bis(cyclo-propylmethyl)amino)-2H-tetrazol-2-yl)methyl)-1-methyl-1H-1,2,3-triazol-4-yl)-2-methylpyridin-3-yl)oxy)cyclohexane-1-carboxylic acid]		6.02
Cc1nc(-c2nnn(C)c2Cn2ccc(Cc3ccccc3)n2)ccc1O[C@H]1CCC[C@H](C(=O)O)C1 [Example 317, (1S,3S)-3-((6-(5-((3-benzyl-1H-pyrazol-1-yl)methyl)-1-methyl-1H-1,2,3-triazol-4-yl)-2-methylpyridin-3-yl)oxy)cyclo-hexane-1-carboxylic acid]	7.20	
Cc1nc(-c2nnn(C)c2Cc2noc(C(C)C3CC3)n2)ccc1O[C@H]1CCC[C@H](C(=O)O)C1 (mixture of isomers) [Example 239, (1S,3S)-3-((6-(5-((5-(1-cyclopropyl-ethyl)-1,2,4-oxadiazol-3-yl)methyl)-1-methyl-1H-1,2,3-triazol-4-yl)-2-methylpyridin-3-yl)oxy)cyclohexane-1-carboxylic acid]	7.55	

Further lines, results first:

pIC50 [1]	pIC50	SMILES
6.73		CCCc1cn(Cc2c(-c3ccc(O[C@H]4CCC[C@H](C(=O)O)C4)c(C)n3)nnn2C)nn1 [Example 86]
	6.03	CCc1nc(-c2nnn(C)c2CNc2nc(C3CC3)ns2)ccc1O[C@H]1CCC[C@H](C(=O)O)C1 [Example 397, (1S,3S)-3-((6-(5-(((3-cyclopropyl-1,2,4-thiadiazol-5-yl)amino)methyl)-1-methyl-1H-1,2,3-triazol-4-yl)-2-ethylpyridin-3-yl)oxy)cyclohexane-1-carboxylic acid]
6.96		CCCc1nsc(NCc2c(-c3ccc(O[C@H]4CCC[C@H](C(=O)O)C4)c(C)n3)nnn2C)n1 [Example 104]
	7.48	CCc1nc(-c2nnn(C)c2CNc2nc(C3CCC3)ns2)ccc1O[C@H]1CCC[C@H](C(=O)O)C1 [Example 396, (1S,3S)-3-((6-(5-(((3-cyclobutyl-1,2,4-thiadiazol-5-yl)amino)methyl)-1-methyl-1H-1,2,3-triazol-4-yl)-2-ethylpyridin-3-yl)oxy)cyclohexane-1-carboxylic acid]
7.39		CCc1nc(OCc2c(-c3ccc(O[C@H]4CCC[C@H](C(=O)O)C4)c(C)n3)nnn2C)no1 [Example 129]
